Experimental data from patent US12263248B2, “Compounds and compositions for intracellular delivery of therapeutic agents” (ModernaTX, Inc., priority 2018, dated 2025).
Where two headings read alike, the source gives them in different places.

Tests used:
[1] = Clinical chemistry and hematology in rat, 2 mpk i.v., 48 h; type: in vivo; settings: intravenous, 48 h post dose
Procedure: Sample formulations of nanoparticle compositions including different lipids were administered intravenously to rat at a dose of 2 mpk. The expression of various clinical markers was evaluated at 48 h post dose and compared to that induced by administration of MC3 formulations or phosphate buffered saline (PBS).

[2] = Nanoparticle characterisation: particle size, polydispersity index, zeta potential; type: physicochemical; settings: nanoparticle composition with hEPO mRNA (Table 30)
From the text: Nanoparticle compositions may be characterized by a variety of methods. For example, microscopy (e.g., transmission electron microscopy or scanning electron microscopy) may be used to examine the morphology and size distribution of a nanoparticle composition. Dynamic light scattering or potentiometry (e.g., potentiometric titrations) may be used to measure zeta potentials. Dynamic light scattering may also be utilized to determine particle sizes. Instruments such as the Zetasizer Nano ZS (Malvern Instruments Ltd, Malvern, Worcestershire, UK) may also be used to measure multiple characteristics of a nanoparticle composition, such as particle size, polydispersity index, and zeta potential.
The mean size of a nanoparticle composition may be between 10s of nm and 100s of nm, e.g., measured by dynamic light scattering (DLS). For example, the mean size may be from about 40 nm to about 150 nm, such as about 40 nm, 45 nm, 50 nm, 55 nm, 60 nm, 65 nm, 70 nm, 75 nm, 80 nm, 85 nm, 90 nm, 95 nm, 100 nm, 105 nm, 110 nm, 115 nm, 120 nm, 125 nm, 130 nm, 135 nm, 140 nm, 145 nm, or 150 nm. In some embodiments, the mean size of a nanoparticle composition may be from about 50 nm to about 100 nm, from about 50 nm to about 90 nm, from about 50 nm to about 80 nm, from about 50 nm to about 70 nm, from about 50 nm to about 60 nm, from about 60 nm to about 100 nm, from about 60 nm to about 90 nm, from about 60 nm to about 80 nm, from about 60 nm to about 70 nm, from about 70 nm to about 150 nm, from about 70 nm to about 130 nm, from about 70 nm to about 100 nm, from about 70 nm to about 90 nm, from about 70 nm to about 80 nm, from about 80 nm to about 150 nm, from about 80 nm to about 130 nm, from about 80 nm to about 100 nm, from about 80 nm to about 90 nm, from about 90 nm to about 150 nm, from about 90 nm to about 130 nm, or from about 90 nm to about 100 nm. In certain embodiments, the mean size of a nanoparticle composition may from about 70 nm to about 130 nm or be from about 70 nm to about 100 nm. In a particular embodiment, the mean size may be about 80 nm. In other embodiments, the mean size may be about 100 nm. In other embodiments, the mean size may be about 120 nm.
A nanoparticle composition may be relatively homogenous. A polydispersity index may be used to indicate the homogeneity of a nanoparticle composition, e.g., the particle size distribution of the nanoparticle compositions. A small (e.g., less than 0.3) polydispersity index generally indicates a narrow particle size distribution. A nanoparticle composition may have a polydispersity index from about 0 to about 0.25, such as 0.01, 0.02, 0.03, 0.04, 0.05, 0.06, 0.07, 0.08, 0.09, 0.10, 0.11, 0.12, 0.13, 0.14, 0.15, 0.16, 0.17, 0.18, 0.19, 0.20, 0.21, 0.22, 0.23, 0.24, or 0.25. In some embodiments, the polydispersity index of a nanoparticle composition may be from about 0.10 to about 0.20.
The zeta potential of a nanoparticle composition may be used to indicate the electrokinetic potential of the composition. For example, the zeta potential may describe the surface charge of a nanoparticle composition. Nanoparticle compositions with relatively low charges, positive or negative, are generally desirable, as more highly charged species may interact undesirably with cells, tissues, and other elements in the body. In some embodiments, the zeta potential of a nanoparticle composition may be from about −10 mV to about +20 mV, from about −10 mV to about +15 mV, from about −10 mV to about +10 mV, from about −10 mV to about +5 mV, from about −10 mV to about 0 mV, from about −10 mV to about −5 mV, from about −5 mV to about +20 mV, from about −5 mV to about +15 mV, from about −5 mV to about +10 mV, from about −5 mV to about +5 mV, from about −5 mV to about 0 mV, from about 0 mV to about +20 mV, from about 0 mV to about +15 mV, from about 0 mV to about +10 mV, from about 0 mV to about +5 mV, from about +5 mV to about +20 mV, from about +5 mV to about +15 mV, or from about +5 mV to about +10 mV.

[3] = Pharmacokinetics of lipids in mice; type: in vivo; parameters: AUC / AUCall Mean: concentration or dose not given beside the values; settings: mouse; for AUC: read-out: AUCall Mean
Procedure: FIGS. 45A and 45B are a pair of graphs illustrating pharmacokinetics of lipids of the disclosure in mice. Mice were administered compositions comprising Compound 50 (FIG. 45A) or Compound 301 (FIG. 45B), in nanoparticle compositions containing DSPC and PEG 1.

[4] = Liver, * = 2 terminal datapoints estimation
[5] = Spleen, * = 2 terminal datapoints estimation

| SMILES | Concentration Alanine aminotransferase [1] | Concentration Aspartate aminotransferase [1] | Concentration Lymphocytes [1] | Concentration Monocytes [1] | Concentration Neutrophils [1] | Osmolality [2] [mOsm/kg] | Zeta potential [2] [mV] | pH [2] | HL [3, 4] | HL ([3]; Plasma) [h] | HL [3, 5] | other results |
| --- | --- | --- | --- | --- | --- | --- | --- | --- | --- | --- | --- | --- |
| CCCCCCCCCN(CCO)CCCCCCCC(=O)OC(CCCCCCCC)CCCCCCCC [Compound 3, Heptadecan-9-yl 8-((2-hydroxyethyl)(nonyl)amino)octanoate] | 53.5 | 87.5 | 12051 | 2103 | 3388.5 | – | – | – | – | – | – | – |
| CCCCCCCCCOC(=O)CCCCCCCN(CCO)CCCCCCCOC(=O)C(CCCCCCCC)CCCCCCCC [Compound 30, 7-((2-Hydroxyethyl)(8-(nonyloxy)-8-oxooctyl)amino)heptyl 2-octyldecanoate] | 56 | 95 | 10408.5 | 877 | 3195 | – | – | – | – | – | – | – |
| CCCCCC/C=C\COC(=O)CCCCCCCN(CCO)CCCCCCCC(=O)OC(CCCCCCCC)CCCCCCCC [Compound 24, Heptadecan-9-yl (Z)-8_((2-hydroxyethyl) (8-(non-2-en-1-yloxy)-8-oxooctyl)amino)octanoate] | 51.5 | 90 | 14100 | 1834 | 1790.5 | – | – | – | – | – | – | – |
| CCCCCCCCCOC(=O)CCCN(CCO)CCCCCCCC(=O)OC(CCCCCCCC)CCCCCCCC [Compound 26, Heptadecan-9-yl 8-((2-hydroxyethyl)(4-(nonyloxy)-4-oxobutyl)amino) octanoate] | – | – | – | – | – | 305 | −3.73 | 7.54 | – | – | – | – |
| CCCCCCCCC(C)OC(=O)CCCCCCCN(CCO)CCCCCCCC(=O)OC(CCCCCCCC)CCCCCCCC (stereo not shown) [Compound 48, decan-2-yl 8-((8-(heptadecan-9-yloxy)-8-oxooctyl)(2-hydroxyethyl)amino)octanoate] | – | – | – | – | – | 311 | −3.61 | 7.58 | – | – | – | – |
| CCCCC/C=C\C/C=C\CCCCCCCCC(CCCCCCCC/C=C\C/C=C\CCCCC)OC(=O)CCCN(C)C [MC3, DLin-MC3-DMA, reference compound] | 339 | 325 | 19976 | 1429 | 4962.5 | 318 | −3.64 | 7.52 | 52.5* hr | 8.4 | 33.3* hr | AUCall Mean ([3]; Liver): 1,410,000 hr * ng/mL; Cmax Mean ([3]; Liver): 33,000 ng/mL; Tmax ([3]; Liver): 24 h; AUCall Mean ([3]; Plasma): 69,100 hr * ng/mL; Cmax Mean ([3]; Plasma): 28,900 ng/mL; Tmax ([3]; Plasma): 0.5 h; AUCall Mean ([3]; Spleen): 787,000 hr * ng/mL; Cmax Mean ([3]; Spleen): 21,200 ng/mL; Tmax ([3]; Spleen): 8 h |
| CCCCCCCCCOC(=O)CCCCCCCN(CCO)CCCCCCCC(=O)OC(CCCCCCCC)CCCCCCCC [Compound 18, Heptadecan-9-yl 8-((2-hydroxyethyl)(8-(nonyloxy)-8-oxooctyl)amino)octanoate] | – | – | – | – | – | 312 | −3.53 | 7.64 | 5.8 h | 1.2 | 10.6 h | Cmax ([3]; Liver): 6050 ng/mL; AUC ([3]; Liver): 16900 ng·h/mL; Tmax ([3]; Liver, read-out: Tmax): 1 h; Cmax ([3]; Plasma): 44200 ng/mL; AUC ([3]; Plasma): 61800 ng·h/mL; Tmax ([3]; Plasma, read-out: Tmax): 0.5 h; Cmax ([3]; Spleen): 3770 ng/mL; AUC ([3]; Spleen): 39400 ng·h/mL; Tmax ([3]; Spleen, read-out: Tmax): 4 h |
| CCCCCCCCCCCOC(=O)CCCCCN(CCO)CCCCCCCC(=O)OC(CCCCCCCC)CCCCCCCC [Compound 25, Heptadecan-9-yl 8-((2-hydroxyethyl)(6-oxo-6-(undecyloxy)hexyl)amino)octanoate] | 52 | 124.5 | 15924 | 2122 | 1998 | 304 | −3.88 | 7.60 | 6.9 h | 2.3 | 15.2 h | Cmax ([3]; Liver): 17900 ng/mL; AUC ([3]; Liver): 89200 ng·h/mL; Tmax ([3]; Liver, read-out: Tmax): 1 h; Cmax ([3]; Plasma): 37500 ng/mL; AUC ([3]; Plasma): 35400 ng·h/mL; Tmax ([3]; Plasma, read-out: Tmax): 0.5 h; Cmax ([3]; Spleen): 20400 ng/mL; AUC ([3]; Spleen): 259000 ng·h/mL; Tmax ([3]; Spleen, read-out: Tmax): 4 h |
